Assay results taken from patent publication US20170029839A1, “METHOD FOR IMPROVING CROP PRODUCTIVITY” (priority 2013, published 2017).

Legend:
[1] = test system: enzyme encoded by SDG8i (SL-UGT); test: UGT enzyme assay (coupled pyruvate kinase/lactate dehydrogenase, NADH absorbance at 340 nm) with N. benthamiana leaf protein extract expressing SDG8i; assay type: biochemical, Sporobolus stapfianus
Experimental: UGT was produced in N. benthamiana leaf tissue by transient transfection using a viral-based MagnICON vector system (Icon Genetics GmbH, Halle/Salle, Germany).
Briefly, the UGT coding sequence was amplified from the SDG8i cDNA (Le et al., 2007) and ligated into the MagnICON plasmid. The plasmid was then cultured in Escherichia coli DH5α (ATCC Catalog No 53868) and electroporated into Agrobacterium tumefaciens LBA4404). Subsequently, Nicotiana benthamiana leaves were covered in aluminium foil for 3 days before being co-infiltrated with the plasmid and the apoplast-targeting and intergrase modules of the MagnICON system (Marillonnet et al. 2005). Leaves were then harvested 5 days after the co-infiltration and homogenised in ice-cold protein extraction buffer. Following removal of the insoluble material by centrifugation at 13,000 rpm at 4° C. for 5 minutes, protein assays were carried out with Bio-Rad Protein Assay Dye (Bio-Rad Laboratories Inc, Hercules, Calif., United States of America) using bovine serum albumin (BSA) as reference. Protein extracts were analysed by SDS-PAGE using the standard methods described by Sambrook et al. (1989).
UGT activity was measured using a coupled assay with pyruvate kinase and lactate dehydrogenase with the reaction rate monitored by the change in NADH absorbance at 340 nm (Jackson et al. 2001). Activity in millikatals kg^−1 was calculated using the extinction coefficient […] for NADH. The background activity of the extracts, monitored by the measurement of the rate without substrate addition, was subtracted from the reaction rate.
To investigate the catalytic function of the enzyme encoded by the SDG8i cDNA, the glucosyltransferase activity of N. benthamiana leaf protein extracts infiltrated with a CaMV 35S promoter driven SDG8i construct was tested against a number of substrates and compared with activity in extracts infiltrated with a vector-only control. The assay utilised a linked enzymic reaction as described in the Materials and Methods. […]

Orobanche seeds = test: Orobanche germination assay; assay type: in vivo; conditions: 0.6 ml aqueous solution 0.0001 mg/1, 7 days at 18-20° C. in the dark; seeds with emerged radicle; water control 11%
Experimental: Orobanche seeds were surface sterilised with 2% sodium hypochlorite containing 0.02% (v/v) of polysorbate 20 surfactant (Tween 20™; Sigma-Aldrich Co LLC, St Louis, Mo., United States of America) for 5 min then rinsed (5×) with sterile ddH2O and dried for 30 min in a laminar air flow cabinet. Subsequently, between 50 and 100 seeds were spread on a sterile […] glass fibre disk and placed in petri dishes (9 cm diameter) lined with filter paper wetted with 3 mL of ddH2O. 1 ml of gibberellic acid (GA3) (30 mg/L) was applied to the seeds and the petri dishes then sealed with parafilm and incubated at 18-20° C. in the dark for preconditioning. After 7 days, surface-sterilised seeds of Arabidopsis W/T, SDG8i transgenics, sorghum and & stapfianus were placed on 5 cm glass microfiber disks and incubated on ¼ MS media with 0.5% sugar and 0.8% agar. For controls, 0.6 ml aqueous solution of synthetic strigolactone analog GR24 (Chiralix B.V., Toernooiveld 1006525 EC Nijmegen, The Netherlands) (0.0001 mg/1) or sterile water was applied to petri dishes with preconditioned Orobanche seeds. The plates were then resealed with parafilm and wrapped with foil and incubated at 18-20° C. for 7 days for germination. Orobanche seed germination was determined under a stereoscopic microscope by counting the number of seeds having an emerged radicle.

[2] = test system: SDG8i promoter-driven GUS reporter (prSDG8i-GUS); test: Activation of GUS expression driven by prSDG8i in onion epidermal peels; assay type: cell-based; conditions: onion peels containing prSDG8i-GUS construct by itself, MJ added to suspension
From the text: The promoter sequence (1660 nt) of SDG8i was placed upstream of the GUS reporter gene in a construct designated prSDG8i-GUS. This construct was transiently co-transformed into onion epidermal peels along with the pMDC32:7y or pMDC32:10y constructs which contained either SDG10y or SDG7y under the transcriptional regulation of the CaMV 35S promoter which is constitutively active in onion cells. The formation of a blue precipitate indicates activation of the SDG8i promoter-driven GUS reporter gene by the SDG10y or SDG7y transcription factor constructs.
Agrobacterium-mediated transient transformation was achieved by immersing onion peels in the Agrobacterium suspensions containing these constructs in 10 mM MES buffer (pH 5.5) and 200 μM acetosyringone at 28° C. in the dark for 2/3 days. A 35S:GUS control construct was included in these experiments and the hormone methyl jasmonate (MJ) was also added to some suspensions. After 2 days, the onion peels were soaked in a GUS staining solution and left at 28° C. in the dark. The onion peels were examined every 2 hours to monitor the formation of blue precipitate.

Row | Structure (SMILES) | Km ([1]; GR24 as substrate of SDG8i extract, FIG. 1B) [µM] | Vmax ([1]; GR24 as substrate of SDG8i extract, FIG. 1B, method: activity calculated in millikatals kg^-1) | glycosylation activity ([1]; SDG8i extract versus vector-only control, background endogenous NADH oxidase subtracted, FIG. 1A) | Orobanche seed germination (Orobanche seeds) [%] | GUS activity [2]
1 | CC1=CC(O/C=C2/C(=O)OC3c4ccccc4CC23)OC1=O (centres unmarked) [GR24] | 349 | 5.67 | substantial glycosylation activity | 95 | –
2 | CC/C=C\CC1C(=O)CCC1CC(=O)OC (centres unmarked) [MJ, methyl jasmonate] | – | – | – | – | elevated
